Results taken from article PMC3341351, “Down-Regulation of GABAA Receptor via Promiscuity with the Vasoactive Peptide Urotensin II Receptor. Potential Involvement in Astrocyte Plasticity” (PLoS ONE, 2012).

Key:
[1] = tested on: α2β1 GABAAR co-expressed with human UT; assay: Patch-clamp of Iso-evoked current in CHO-UT expressing α2β1 GABAAR; assay type: cell-based; conditions: hUII 10^−13 to 10^−7 M; Iso 10^−4 M, 2 s; −60 mV
UT in human U87 glioma = assay: Cell surface ELISA of UT in U87 glioma; assay type: cell-based; conditions: hUII 10^−8 M, 30 min, absence or presence of the UT C-terminus
Description: The human cell line from glioblastoma U87 was obtained from the American Type Culture Collection (LGC Standards, Molsheim, France). U87 cells were maintained in DMEM containing 10% FBS and 1% sodium pyruvate. NHA-Astrocytes (Lonza, Walkersville, MD, USA) were cultivated in DMEM culture medium supplemented with 2 mM glutamine, 5 mM HEPES, 1% non essential amino acids, 1% sodium pyruvate, B27, 25 ng/ml EGF, 1% of the antibiotic-antimycotic solution and 10% FBS. All cells were incubated at 37°C in a humidified atmosphere containing 5% CO2. Culture media were replaced every three days.
Cells were plated at 50 000 cells/well in 96-well plates coated with 0.1 mg/ml poly-L-ornithine (Sigma-Aldrich). […] Cells were fixed with 4% PFA in PBS for 5 min at RT, washed in PBS, and then permeabilized in 0.05% triton X100 (only for permeabilized cells) and non specific binding were blocked with PBS containing 1% FBS for 30 min at RT. […] The cells were washed four times with PBS, a colorimetric alkaline phosphatase substrate was added (SuperSignal ELISA, Thermo scientific, Fisher) and the resulting color reaction was measured using a Viktor multilabel plate reader (PerkinElmer, Courtaboeuf, France). Background absorbance from samples transfected with non-tagged receptors or from cells without first antibodies were systematically measured. […]

[2] = tested on: GABAAR in astrocytes (mono-culture); assay: Patch-clamp responsiveness of astrocytes in mono-culture to isoguvacine; assay type: cell-based, rat; conditions: Iso 10^−4 M; n = 31
Description: Primary cultures of astrocytes were prepared as previously described. Briefly, cerebellum from 7-day-old (P7) Wistar rats were collected in DMEM/Ham-F12 (2∶1, v/v) culture medium supplemented with 2 mM glutamine, 1% insulin, 5 mM HEPES, 0.4% D(+)-glucose and 1% of the antibiotic-antimycotic solution. The tissues were disaggregated mechanically with a syringue equipped with a 1-mm gauge needle, and filtered through a 100-µm pore size mesh filter (Falcon, Becton Dickinson, Grenoble, France). Dissociated cells were resuspended in culture medium supplemented with 10% heat-inactivated FBS and seeded in 150-cm^2 culture flasks (Falcon) at a density of 20×10^6 cells/flask. Cells were incubated at 37°C in a humidified atmosphere (5% CO2) and the medium was changed twice a week. When cultures were confluent, the flasks were gently shaken on an orbital shaker at […] for 2 h. Dislodged cells were discarded and a second step of purification was performed at […] for 14–16 h. Remaining adhesive cells were collected by trypsination, centrifuged (800 g, 10 min) and plated in 150-cm^2 flasks. Suspended astrocytes were harvested and seeded in 24-well poly-L-lysine-coated plates. The purity of the cultures was previously assessed by counting the percentage of astrocytes immunostained with GFAP antibodies. The enriched cultures contained >99% astrocytes. […]

| Compound | Inhibitory effect on Iso-evoked current, α2β1 [1] | UT levels at the cell surface, U87 (UT in human U87 glioma) | Cells responding to isoguvacine, astrocytes in mono-culture [2] [%] |
| --- | --- | --- | --- |
| ETPDCFWKYCV (disulfide) [hUII, human urotensin II, synthesized by solid phase methodology] | totally ineffective | remained unchanged | – |
| O=C(O)C1=CCNCC1 [Iso, isoguvacine] | – | – | 12 |
